Reference: patent publication US9045524B2, “Selective caspase inhibitors and uses thereof” (NOVAGENESIS FOUNDATION, priority 2009, dated 2015)
Structures can show the parent of a compound that is named as a salt. Where two headings read alike, the source gives them in different places. Square brackets hold non-standard residues; d marks the D form. Peptide text beside a SMILES is read from it. * marks the point of attachment. Phg = N[C@H](C(=O)O)c1ccccc1; Cbz = O=C(OCc1ccccc1)*; OtBu = CC(C)(C)O*

Experiments:
Caspase-1 = Caspase-1 (Homo sapiens (Human), UniProt P29466); experiment: Caspase-1 Inhibitor Drug Screening Kit, fluorometric (AFC liberation); format: biochemical; settings: 30-minute incubation at 37° C.; approximations of the average values; read-out: Caspase enzymatic activity, IC50 (uM) Caspase 1
Protocol: (§1) The level of inhibition of caspase-1, -3, -5, -7, -9 activity was determined by comparison of the relative fluorescence intensity in samples with or without the compound.

Caspase-3 = Caspase-3 (Homo sapiens (Human), UniProt P42574); experiment: Caspase-3 Inhibitor Drug Screening Kit, fluorometric (AFC liberation); format: biochemical
Protocol: as §1

Caspase-5 = Caspase-5 (Homo sapiens (Human), UniProt P51878); experiment: Caspase-5 Inhibitor Drug Screening Kit, fluorometric (AFC liberation); format: biochemical; settings: 30-minute incubation at 37° C.; approximations of the average values; read-out: Caspase enzymatic activity, IC50 (uM) Caspase 5
Protocol: as §1

Caspase-7 = Caspase-7 (Homo sapiens (Human), UniProt P55210); experiment: Caspase-7 Inhibitor Drug Screening Kit, fluorometric (AFC liberation); format: biochemical; settings: 30-minute incubation at 37° C.; approximations of the average values; read-out: Caspase enzymatic activity, IC50 (uM) Caspase 7
Protocol: as §1

Caspase-9 = Caspase-9 (Homo sapiens (Human), UniProt P55211); experiment: Caspase-9 Inhibitor Drug Screening Kit, fluorometric (AFC liberation); format: biochemical; settings: 30-minute incubation at 37° C.; approximations of the average values; read-out: Caspase enzymatic activity, IC50 (uM) Caspase 9
Protocol: as §1

[1] = tested on: proteolytic cleavage of PARP (poly ADP-ribose polymerase) in Hela cells; experiment: Inhibition of staurosporine-induced PARP cleavage in live Hela cells; format: cell-based; settings: for inhibition at 50 µM: Homo sapiens, HeLa
Protocol: To test the efficacy of caspase-3 inhibitors at the cellular level, the ability of selected compounds to inhibit the proteolytic cleavage of PARP (poly ADP-ribose polymerase) was evaluated in live Hela cells.
Briefly, in this assay Hela cells are seeded in 96 well plates and incubated for 4 hours with staurosporine, a well characterized inducer of apoptosis, alone or together with different concentrations of compound (50, 25, 10 and 3 uM). After formaldehyde-based fixation, the cells are stained with a fluorescein-labeled anti-cleaved PARP antibody (Cell signaling, Cat#: 9547) and counterstained with Hoechst33342 (Invitrogen, Cat#: H3570) to mark all nuclei. Fluorescence images are taken on a Cellomics™ microscope system (Thermo Scientific, Pittsburgh, USA) with the Hoechst stain in the blue channel and the cleaved PARP antibody stain in the green channel. The percentage of cleaved PARP positive cells is determined by calculating the ratio between nuclei with a cleaved PARP antibody staining above a certain threshold and all (Hoechst positive) nuclei. The efficacy of caspase-3 inhibition is determined by calculating the ratio between cleaved PARP positive cells after staurosporine incubation together with compounds and staurosporine incubation without compounds.

Glo3/7 = Glo3/7 assay; format: biochemical
[2] = 30-minute incubation at 37° C., approximations of the average values, read-out: Caspase enzymatic activity, IC50 (uM) Caspase 3
[3] = 4 h, read-out: % inhibition of PARP cleavage at 50 uM compound, Hela cells, staurosporine 4 hours, 50 uM compound
[4] = Hela cells, 50 uM, read-out: % of inhibition with compound relative to DEVDFMK

Sequence of Caspase-1 (P29466 120-404): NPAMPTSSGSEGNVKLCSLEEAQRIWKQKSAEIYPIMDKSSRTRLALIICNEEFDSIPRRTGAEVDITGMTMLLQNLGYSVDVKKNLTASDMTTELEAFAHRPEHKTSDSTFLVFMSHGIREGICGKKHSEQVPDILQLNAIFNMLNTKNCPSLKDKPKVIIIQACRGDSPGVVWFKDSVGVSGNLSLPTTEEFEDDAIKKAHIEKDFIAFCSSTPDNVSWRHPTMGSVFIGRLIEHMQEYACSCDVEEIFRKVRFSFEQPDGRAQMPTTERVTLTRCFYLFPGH
Sequence of Caspase-5 (P51878 137-434): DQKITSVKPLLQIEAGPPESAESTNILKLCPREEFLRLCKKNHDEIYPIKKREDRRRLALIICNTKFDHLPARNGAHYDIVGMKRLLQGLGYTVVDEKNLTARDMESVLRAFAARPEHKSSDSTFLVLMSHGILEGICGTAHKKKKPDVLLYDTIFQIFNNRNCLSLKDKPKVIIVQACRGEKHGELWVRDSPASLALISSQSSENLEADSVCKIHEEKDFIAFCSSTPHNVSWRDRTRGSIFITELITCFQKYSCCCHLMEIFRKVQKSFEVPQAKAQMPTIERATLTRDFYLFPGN
Sequence of Caspase-9 (P55211 whole entry): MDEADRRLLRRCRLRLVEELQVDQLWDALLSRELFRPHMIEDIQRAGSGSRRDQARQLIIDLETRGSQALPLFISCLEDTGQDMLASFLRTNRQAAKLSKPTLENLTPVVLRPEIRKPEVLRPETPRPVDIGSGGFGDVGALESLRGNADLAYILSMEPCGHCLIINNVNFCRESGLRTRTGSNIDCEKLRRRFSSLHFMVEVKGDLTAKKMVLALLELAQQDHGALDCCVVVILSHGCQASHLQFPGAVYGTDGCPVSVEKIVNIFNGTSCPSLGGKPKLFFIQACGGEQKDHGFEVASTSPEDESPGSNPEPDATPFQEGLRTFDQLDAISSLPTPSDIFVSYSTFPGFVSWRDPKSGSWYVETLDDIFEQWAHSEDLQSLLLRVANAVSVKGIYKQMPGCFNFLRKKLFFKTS
Sequence of Caspase-7 (P55210 whole entry): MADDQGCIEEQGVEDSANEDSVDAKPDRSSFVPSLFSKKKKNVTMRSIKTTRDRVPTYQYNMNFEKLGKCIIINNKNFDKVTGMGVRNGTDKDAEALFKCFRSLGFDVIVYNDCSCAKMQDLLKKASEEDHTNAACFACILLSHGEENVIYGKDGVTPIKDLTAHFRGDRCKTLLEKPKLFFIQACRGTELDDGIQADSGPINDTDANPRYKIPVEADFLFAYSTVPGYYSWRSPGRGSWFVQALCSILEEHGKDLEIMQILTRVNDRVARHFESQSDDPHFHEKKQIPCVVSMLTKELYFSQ
Sequence of Caspase-3 (P42574 29-277): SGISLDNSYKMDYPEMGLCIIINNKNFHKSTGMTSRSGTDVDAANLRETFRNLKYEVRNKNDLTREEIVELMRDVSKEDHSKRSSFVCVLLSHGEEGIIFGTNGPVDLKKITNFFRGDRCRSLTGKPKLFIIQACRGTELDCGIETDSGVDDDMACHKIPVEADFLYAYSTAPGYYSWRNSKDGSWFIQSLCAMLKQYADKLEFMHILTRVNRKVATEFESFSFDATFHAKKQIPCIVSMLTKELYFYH

For `CS(=O)(=O)/C=C/[C@@H](N)CC(=O)O.Cc1ccc(S(=O)(=O)O)cc1` [Compound 93, AspVSmethyl], the IC50 (Caspase-1) was greater than 3.33 µM, the “activity against caspase-3” value (Caspase-3) was “devoid of any activity” and the IC50 (Caspase-3; [2]) was greater than 10 µM. The IC50 (Caspase-5) was greater than 3.33 µM, the IC50 (Caspase-7) was greater than 3.33 µM and the IC50 (Caspase-9) was greater than 3.33 µM. For the same compound, the inhibition at 50 µM [1, 3] was 15%, the inhibition at 50 µM [1, 4] was 25% and the IC50 (Glo3/7) was greater than 50 µM.
`CC(C)[C@H](NC(=O)[C@@H](NC(=O)[C@H](CC(=O)OC(C)(C)C)NC(=O)OCc1ccccc1)c1ccccc1)C(=O)O` [Compound 16, Z-Asp(β-tert-butyl)-Phg-Val-OH] (Cbz-Asp(OtBu)-[Phg]-Val-OH) was tested, and the IC50 (Caspase-1) was greater than 3.33 µM, the “activity against caspase-3” value (Caspase-3) was “devoid of any activity” and the IC50 (Caspase-3; [2]) was greater than 2 µM. For the same compound, the IC50 (Caspase-5) was greater than 3.33 µM, the IC50 (Caspase-7) was greater than 3.33 µM and the IC50 (Caspase-9) was greater than 3.33 µM. It also gave an inhibition at 50 µM [1, 3] of 13%, an inhibition at 50 µM [1, 4] of 23% and an IC50 (Glo3/7) greater than 50 µM.
`CC(C)[C@H](NC(=O)[C@H](Cc1ccc(O)cc1)NC(=O)[C@H](CC(=O)O)NC(=O)OCc1ccccc1)C(=O)N[C@H](/C=C/S(C)(=O)=O)CC(=O)O` [Compound 76, Z-Asp-Tyr-Val-Aspmethyl vinyl sulfone] showed an IC50 (Caspase-1) greater than 3.33 µM, an IC50 (Caspase-3; [2]) of 0.03 µM and an IC50 (Caspase-5) greater than 3.33 µM. The IC50 (Caspase-7) was 0.7 µM, the IC50 (Caspase-9) was greater than 3.33 µM and the inhibition at 50 µM [1, 3] was greater than 50%. For the same compound, the IC50 (Glo3/7) was 0.04 µM.
`Cc1ccc(S(=O)(=O)N[C@@H](Cc2ccc3ccccc3n2)C(=O)N[C@H](C(=O)N[C@H](/C=C(\Cl)S(C)(=O)=O)CC(=O)O)C(C)C)cc1` [Compound 50] showed an IC50 (Caspase-1) greater than 3.33 µM, an IC50 (Caspase-3; [2]) greater than 3.33 µM and an IC50 (Caspase-5) greater than 3.33 µM. The IC50 (Caspase-7) was greater than 3.33 µM, the IC50 (Caspase-9) was greater than 3.33 µM and the inhibition at 50 µM [1, 3] was 0%. It also gave an inhibition at 50 µM [1, 4] of 0% and an IC50 (Glo3/7) of 40 µM.
Work on `CC(C)(C)OC(=O)C[C@H](N)/C=C/S(=O)(=O)c1ccccc1` [Compound 37, Asp-vinyl Phenyl Sulfone Salt Form] yielded an IC50 (Caspase-1) greater than 3.33 µM, an IC50 (Caspase-3; [2]) greater than 2 µM and an IC50 (Caspase-5) greater than 3.33 µM. The IC50 (Caspase-7) was greater than 3.33 µM, the IC50 (Caspase-9) was greater than 3.33 µM and the inhibition at 50 µM [1, 3] was 20%. It also gave an inhibition at 50 µM [1, 4] of 35% and an IC50 (Glo3/7) greater than 50 µM.
`CC(C)[C@H](NC(=O)[C@@H](NC(=O)[C@H](CC(=O)O)NC(=O)OCc1ccccc1)c1ccccc1)C(=O)N[C@H](/C=C/S(=O)(=O)c1ccccc1)CC(=O)O` [Compound 69, Z-Asp-Phg-Val-Asp-phenyl Vinylsulfone] showed an IC50 (Caspase-1) greater than 3.33 µM, an IC50 (Caspase-3; [2]) of 0.1 µM and an IC50 (Caspase-5) greater than 10 µM. The IC50 (Caspase-7) was 1.8 µM, the IC50 (Caspase-9) was greater than 3.33 µM and the inhibition at 50 µM [1, 3] was 20%. For the same compound, the inhibition at 50 µM [1, 4] was 35% and the IC50 (Glo3/7) was 1.4 µM.
`CC(C)[C@H](NC(=O)C(Cc1ccc2ccccc2n1)NC(=O)[C@H](CC(=O)O)NC(=O)OCc1ccccc1)C(=O)N[C@H](/C=C/S(C)(=O)=O)CC(=O)O` (stereo partly shown) [Compound 71, Z-Asp-(D,L Ala(2′-quinolyl))-Val-Aspmethyl Vinylsulfone] showed an IC50 (Caspase-1) greater than 10 µM, an IC50 (Caspase-5) greater than 10 µM and an IC50 (Caspase-7) of 8.9 µM. For the same compound, the IC50 (Caspase-9) was greater than 10 µM, the inhibition at 50 µM [1, 3] was 20% and the inhibition at 50 µM [1, 4] was 35%. For the same compound, the IC50 (Glo3/7) was 0.3 µM.
Compound `CC(C)[C@H](NC(=O)[C@H](Cc1ccc(O)cc1)NC(=O)OCc1ccccc1)C(=O)N[C@@H](C)C(=O)N[C@H](/C=C/S(=O)(=O)c1ccccc1)CC(=O)O` [Compound 96, z-Tyr-Val-Ala-AspVS phenyl] has an IC50 (Caspase-1) of 1.3 µM, an IC50 (Caspase-3; [2]) greater than 10 µM and an IC50 (Caspase-5) greater than 3.33 µM. It also gave an IC50 (Caspase-7) greater than 10 µM, an IC50 (Caspase-9) greater than 10 µM and an inhibition at 50 µM [1, 3] of 1%. The inhibition at 50 µM [1, 4] was 2% and the IC50 (Glo3/7) was greater than 50 µM.
Work on `CC(C)[C@H](NC(=O)[C@H](Cc1ccc2ccccc2n1)NC(=O)[C@H](CC(=O)O)NC(=O)OCc1ccccc1)C(=O)N[C@H](/C=C(\Cl)S(C)(=O)=O)CC(=O)O` [Compound 48, Z-Asp-Ala(2′-quinolyl)-Val-Asp-achlorovinyl methylsulfone] yielded an IC50 (Caspase-1) greater than 3.33 µM, an IC50 (Caspase-3; [2]) of 0.01 µM and an IC50 (Caspase-3; read-out: IC50 caspase-3) of 0.008 to 0.03 µM. The IC50 (Caspase-5) was greater than 3.33 µM, the IC50 (Caspase-7) was 0.4 µM and the IC50 (Caspase-9) was 1.2 µM. The “effectivity in inhibiting PARP cleavage” value ([1]; Hela cells, staurosporine) was “showing effectivity especially relative to DEVD-fmk” and the IC50 (Glo3/7) was 0.1 µM.
Compound `CC(C)[C@H](NC(=O)[C@H](Cc1ccccn1)NC(=O)[C@H](CC(=O)O)NC(=O)OCc1ccccc1)C(=O)N[C@H](/C=C/S(=O)(=O)c1ccccc1)CC(=O)O` [Compound 85] has an IC50 (Caspase-1) greater than 3.33 µM, an IC50 (Caspase-3; [2]) of 0.03 µM and an IC50 (Caspase-5) greater than 3.33 µM. For the same compound, the IC50 (Caspase-7) was 1 µM, the IC50 (Caspase-9) was greater than 3.33 µM and the inhibition at 50 µM [1, 4] was 45%. For the same compound, the IC50 (Glo3/7) was 0.3 µM.
In the case of `CC(C)[C@H](NC(=O)[C@H](CCC(=O)O)NC(=O)[C@H](Cc1ccc(O)cc1)NC(=O)OCc1ccccc1)C(=O)N[C@H](/C=C/S(C)(=O)=O)CC(=O)O` [Compound 82], the IC50 (Caspase-1) is reported as 0.5 µM, the IC50 (Caspase-3; [2]) is reported as 0.3 µM and the IC50 (Caspase-5) is reported as greater than 3 µM. The IC50 (Caspase-7) was greater than 5 µM, the IC50 (Caspase-9) was 1.6 µM and the inhibition at 50 µM [1, 3] was 15%. It also gave an inhibition at 50 µM [1, 4] of 15% and an IC50 (Glo3/7) of 3.7 µM.
For `CC(C)(C)OC(=O)C[C@H](N)/C=C/S(C)(=O)=O.Cc1ccc(S(=O)(=O)O)cc1` [Compound 33, Asp(β-tert-butyl)methyl Vinyl Sulfone Tosyl Salt], the IC50 (Caspase-1) was greater than 3.33 µM, the “activity against caspase-3” value (Caspase-3) was “devoid of any activity” and the IC50 (Caspase-3; [2]) was greater than 10 µM. For the same compound, the IC50 (Caspase-5) was greater than 3.33 µM, the IC50 (Caspase-7) was greater than 3.33 µM and the IC50 (Caspase-9) was greater than 3.33 µM. For the same compound, the inhibition at 50 µM [1, 3] was 30%, the inhibition at 50 µM [1, 4] was 50% and the IC50 (Glo3/7) was greater than 50 µM.
For `CC(C)[C@H](NC(=O)[C@H](Cc1ccc2ccccc2n1)NC(=O)[C@H](CC(=O)OC(C)(C)C)NC(=O)OCc1ccccc1)C(=O)N[C@H](/C=C/S(=O)(=O)N1CCOCC1)CC(=O)OC(C)(C)C` [Compound 66, Z-Asp(β-tert-Butyl)-Ala(2′-quinolyl)-Val-Asp(β-tert-Butyl)morpholine Vinyl Sulfone], the IC50 (Caspase-1) was greater than 3.33 µM, the IC50 (Caspase-3; [2]) was 0.2 µM and the IC50 (Caspase-5) was greater than 3.33 µM. It also gave an IC50 (Caspase-7) greater than 3.33 µM, an IC50 (Caspase-9) greater than 3.33 µM and an inhibition at 50 µM [1, 4] of 35%. For the same compound, the IC50 (Glo3/7) was 1.4 µM.
